How the values were obtained:
Format in all cases: in vivo, mice
[1] = system: NCI-H28(X1) (BAP1mut, UHRF1high, TP53WT, CDKN2Adel, FGFRlow, NF2WT) subcutaneous mesothelioma xenograft; assay: NCI-H28(X1) subcutaneous mesothelioma xenograft model (Example 23); details: Compound C 50 mg/kg orally every other day, Compound 73 100 mg/kg orally once per day, 28 days, alone or combined
Experimental: (§1) A subcutaneous xenograft tumor model of human tumor immunodeficient mice was established by cell inoculation: tumor cells in logarithmic growth phase were collected, counted, resuspended in 1×PBS, and the cell suspension concentration was adjusted to 2.5-5×10^7/mL. The tumor cells were inoculated subcutaneously in the right side of immunodeficient mice with a 1 ml syringe ([…]), 5-10×10^6/0.2 mL/mouse. All animal experiments were strictly in accordance with the specifications for the use and management of experimental animals in GenePharma Co., Ltd. and Suzhou Ascentage Pharma Co., Ltd. The calculation of relevant parameters refers to the Chinese NMPA “Guidelines for Non-Clinical Research Techniques of Cytotoxic Anti-tumor Drugs”.
(§2) Animal body weight and tumor size were measured twice weekly during the experiment. The state of the animal and the presence or absence of death were observed every day. The growth of tumor and the effects of treatment on normal behavior of animals were monitored routinely, specifically involving experimental animal activity, feeding and drinking, weight gain or loss, eyes, clothing hair and other abnormalities. The deaths and clinical symptoms observed during the experiment were recorded in the raw data. All operations for administration and measurement of mouse body weight and tumor volume were performed in a clean bench. According to the requirements of the experimental protocol, after the end of the last administration, plasma and tumor tissues were collected, weighed and photographed. The plasma and tumor samples were frozen at −80° C. for ready-to-use.
(§3) Tumor volume (TV) is calculated as: TV=a×b^2/2, wherein a and b represent the length and width of the tumor to be measured, respectively.
(§4) The relative tumor volume (RTV) is calculated as: RTV=Vt/V1, wherein V1 is the tumor volume at the start of grouping and administration, and Vt is the tumor volume measured on the t day after administration.
The evaluation index of anti-tumor activity is the relative tumor proliferation rate T/C (%), and the calculation formula thereof is: relative tumor proliferation rate T/C (%)=(TRTV/CRTV)×100%, TRTV is the RTV of treatment group, CRTV is the RTV of solvent control group. […]
(§5) According to the description by Clarke R., Issues in experimental design and endpoint analysis in the study of experimental cytotoxic agents in vivo in breast cancer and other models [J]. Breast Cancer Research & Treatment, 1997, 46(2-3): 255-278, synergy analysis was evaluated using the following formula: synergy factor=((A/C)×(B/C))/(AB/C); A=RTV value of drug A alone group; B=RTV value of drug B alone group; C=RTV value of the solvent control group, and AB=RTV value of the A and B combination group. […]

LnCap prostate xenograft = assay: Subcutaneous LnCap prostate xenograft model (Example 25); details: day 17
Experimental: as §1, §2, §3, §4
(§6) The evaluation index of anti-tumor activity is the relative tumor proliferation rate T/C (%), and the calculation formula thereof is: relative tumor proliferation rate T/C (%)=(TRTV/CRTV)×100%, TRTV is the RTV of treatment group, CRTV is the RTV of solvent control group.
(§7) A dose of drug is considered to be severely toxic if the body weight of mouse is reduced by more than 20% or the number of drug-related deaths exceeds 20%.
According to the description by Clarke R., Issues in experimental design and endpoint analysis in the study of experimental cytotoxic agents in vivo in breast cancer and other models [J]. Breast Cancer Research & Treatment, 1997, 46(2-3): 255-278, synergy analysis was evaluated using the following formula: synergy factor=((A/C)×(B/C))/(AB/C); A=RTV value of drug A alone group; B=RTV value of drug B alone group; C=RTV value of the solvent control group, and AB=RTV value of the A and B combination group.
In this experiment, subcutaneous LnCap prostate xenograft model was established to evaluate the anti-tumor effect of Compound 73 in combination with Compound C. The dosing regimen was as follows: • Compound C: 100 mg/kg, orally, every other day, for day 1-day 9; 50 mg/kg, orally, every other day, for day 10-day 28; • Compound 73: 100 mg/kg, orally, once per day, for a total of 28 days;
The dosing regimen of each drug in the dosing regimen for the combination is the same as the dosing regimen for the single drug, for a total of 28 days.

[2] = system: malignant pleural mesothelioma (MPM) PDX model (FGFR1high; BAP1mut); assay: Subcutaneous malignant pleural mesothelioma (MPM) PDX model (Example 20); details: Compound 73 100 mg/kg, Compound C 50 mg/kg, each orally every other day, 76 days; alone or combined
Experimental: as §1, §2, §3
The relative tumor volume (RTV) is calculated as: RTV=Vt/V1, wherein V1 is the tumor volume at the start of grouping and administration, and Vt is the tumor volume measured on the t day after administration. […]
Change of body weight (%)=(measured body weight-body weight at the start of grouping)/body weight at the start of grouping×100%. […]
as §5

[3] = system: BAP1 mut mesothelioma PDX model; assay: Subcutaneous BAP1 mut mesothelioma PDX model (Example 21); details: Compound 73 100 mg/kg orally once per day, Compound C 50 mg/kg orally every other day, 36 days; alone or combined
Experimental: as §1, §2, §3, §4, §6
(§8) Change of body weight (%)=(measured body weight-body weight at the start of grouping)/body weight at the start of grouping×100%.
as §7
In this experiment, subcutaneous BAP1 mut mesothelioma PDX model was established (Lide Biotech) to evaluate the anti-tumor effect of Compound 73 in combination with Compound C. […]

[4] = system: H226 (BAP1mut, UHRF1high, TP53WT, CDKN2Adel, FGFRhigh) subcutaneous mesothelioma xenograft; assay: H226 subcutaneous mesothelioma xenograft model (Example 22); details: for RTV @ D 39: mean ± SEM
Experimental: as §1, §2, §3, §4, §6, §8, §7
In this experiment, H226 (BAP1mut, UHRF1high, TP53WT, CDKN2Adel, FGFRhigh) subcutaneous mesothelioma xenograft model was established to evaluate the anti-tumor effect of Compound 73 in combination with Compound C. The dosing regimen was as follows: • Compound C: 50 mg/kg, orally, every other day, for a total of 39 days; • Compound 73: 50 mg/kg, orally, once per day, for a total of 39 days; • Compound 73: 100 mg/kg, orally, once per day, for a total of 39 days.

[5] = Compound 73 100 mg/kg orally once per day, alone or combined with Compound C 50 mg/kg every other day
[6] = Compound C 50 mg/kg orally every other day, Compound 73 50 mg/kg orally once per day, alone or combined

CC(C)N1Cc2cc(C(F)(F)F)ncc2-c2cnc(NCc3c(F)ccc4c3CCO4)n3cnc(c23)C1=O [Compound 73, 12-(((5-fluoro-2,3-dihydrobenzofuran-4-yl)methyl)amino)-4-isopropyl-7-(trifluoromethyl)-4,5-dihydro-3H-2,4,8,11,12a-pentaazabenzo[4,5]cycloocta[1,2,3-cd]inden-3-one]
T/C (%) @ D 29 [1]: 33.06% | RTV@ D 29 ([1]; mean ± SEM): 5.05 ± 0.41 | RTV@ D 17 (LnCap prostate xenograft; LnCap xenograft, Compound 73 100 mg/kg orally once per day, Compound C 100 mg/kg/50 mg/kg orally every other day): 4.09 ± 0.75 | T/C(%) @ D 17 (LnCap prostate xenograft; LnCap xenograft, Compound 73 100 mg/kg, Compound C 100 mg/kg/50 mg/kg): 91.30% | T/C value (LnCap prostate xenograft; Compound C 100 mg/kg every other day day 1-9 then 50 mg/kg day 10-28, Compound 73 100 mg/kg once per day, orally, alone or combined): 91.30% | RTV @ D 76 [2]: 3.06 | T/C (%) @ D 76 [2]: 53% | RTV @ D 36 [3]: 5.43 | T/C (%) @ D 36 [3]: 37.22% | T/C (%) @ D 39 [4, 5]: 59.73% | RTV @ D 39 [4, 5]: 4.76 ± 0.61 | T/C (%) @ D 39 [4, 6]: 67.7% | RTV @ D 39 [4, 6]: 5.39 ± 0.56 | antitumor activity (in words) ([4]; single agents, 39 days (FIG. 10)): moderate antitumor activity
